{"source": "patent US4451473A", "about": "“3,7-Diazabicyclo [3.3.1] nonanes having anti-arrhythmic activity” (Richter Gedeon Vegyeszeti Gyar Rt., priority 1981, dated 1984)", "key": {"[1]": {"tested_on": "disorders of cardiac rhythm provoked by aconitine in rats", "type": "in vivo", "details": "ED50 rat i.v. / LD50 mouse i.v.", "procedure": "When examining the antiarrhythmic effects, rats were pre-treated intravenously with 1 mg/kg of aconitine to provoke disorders of cardiac rhythm [Med. Exp. (Basel) 10, 93 (1964)], thereafter the test compound was administered intravenously, and the dose required to restore the rhythm in 50% (ED50 mg/kg) was determined."}, "in vivo": {"test": "in vivo", "details": "mouse, iv"}, "[2]": {"tested_on": "calcium antagonistic effect", "test": "Calcium antagonistic effect (pA2)"}}, "note": "Counter-ions that a name gives are not always drawn.", "data": [{"smiles": "CN1CC2CN(C)CC(C1)C2Oc1ccccc1.O=C(O)/C=C/C(=O)O", "note": "(stereo not shown) [3,7-dimethyl-9-phenoxy-3,7-diazabicyclo[3.3.1]nonane fumarate]", "values": [{"measurement": "Therap. index (ED50/LD50)", "setting": "[1]", "result": 0.029}, {"measurement": "LD50", "setting": "in vivo", "result": 39, "unit": "mg/kg"}]}, {"smiles": "CCN1CC2CN(C)CC(C1)C2Oc1ccccc1Cl", "note": "(stereo not drawn) [3-Methyl-7-ethyl-9α-(2'-chlorophenoxy)-3,7-diazabicyclo[3.3.1]nonanedihydrochloride]", "values": [{"measurement": "Therap. index (ED50/LD50)", "setting": "[1]", "result": 0.041}, {"measurement": "LD50", "setting": "in vivo", "result": 28, "unit": "mg/kg"}]}, {"smiles": "CCN1CC2CN(C)CC(C1)C2OC(=O)c1ccc(Cl)cc1Cl", "note": "(stereo not drawn) [3-Methyl-7-ethyl-9α-(2',4'-dichloro-benzoyloxy)-3,7-diazabicyclo[3.3.1]nonane dihydrochloride]", "values": [{"measurement": "Therap. index (ED50/LD50)", "setting": "[1]", "result": 0.055}, {"measurement": "LD50", "setting": "in vivo", "result": 20, "unit": "mg/kg"}]}, {"smiles": "CCN1CC2CN(C)CC(C1)C2OC(=O)c1ccc(Cl)cc1", "note": "(stereo not drawn) [3-Methyl-7-ethyl-9α-(4'-chloro-benzoyloxy)-3,7-diazabicyclo[3.3.1]nonane dihydrochloride]", "values": [{"measurement": "calcium antagonistic effect (pA2)", "setting": "[2]", "result": "4.33-4.6"}]}, {"smiles": "CN1CC2CN(C)CC(C1)C2Oc1ccc(Cl)cc1.O=C(O)/C=C/C(=O)O", "note": "(stereo not shown) [3,7-Dimethyl-9-(4'-chlorophenoxy)-3,7-diazabicyclo[3.3.1]nonane fumarate]", "values": [{"measurement": "Therap. index (ED50/LD50)", "setting": "[1]", "result": 0.017}, {"measurement": "LD50", "setting": "in vivo", "result": 52, "unit": "mg/kg"}]}, {"smiles": "CCN1CC2CN(C)CC(C1)C2Oc1ccc(Cl)cc1", "note": "(stereo not drawn) [3-Methyl-7-ethyl-9α-(4'-chlorophenoxy)-3,7-diazabicyclo[3.3.1]nonanedihydrochloride]", "values": [{"measurement": "Therap. index (ED50/LD50)", "setting": "[1]", "result": 0.030}, {"measurement": "LD50", "setting": "in vivo", "result": 41, "unit": "mg/kg"}]}, {"smiles": "CN1CC2CN(C)CC(C1)C2OC(=O)c1ccc2ccccc2c1", "note": "(stereo not shown) [3,7-dimethyl-9-(2'-naphthoyloxy)-3,7-diazabicyclo[3.3.1]nonane]", "values": [{"measurement": "Therap. index (ED50/LD50)", "setting": "[1]", "result": 0.006}, {"measurement": "LD50", "setting": "in vivo", "result": 17, "unit": "mg/kg"}]}, {"smiles": "CCCCN1CC2CN(CCCC)CC(C1)C2OC(=O)c1ccc(Cl)cc1", "note": "(stereo not shown) [3,7-di-n-butyl-9-(4'-chlorobenzoyloxy)-3,7-diazabicyclo[3.3.1]nonane]", "values": [{"measurement": "Therap. index (ED50/LD50)", "setting": "[1]", "result": 0.050}, {"measurement": "LD50", "setting": "in vivo", "result": 5, "unit": "mg/kg"}]}, {"smiles": "CN1CC2CN(C)CC(C1)C2OC(=O)C1c2ccccc2Oc2ccccc21", "note": "(stereo not shown) [3,7-dimethyl-9-(xanthene-9'-carbonyloxy)-3,7-diazabicyclo[3.3.1]nonane]", "values": [{"measurement": "Therap. index (ED50/LD50)", "setting": "[1]", "result": 0.019}, {"measurement": "LD50", "setting": "in vivo", "result": 14, "unit": "mg/kg"}]}, {"smiles": "CCOc1ccc(C(=O)OC2C3CN(C)CC2CN(C)C3)cc1OC", "note": "(stereo not shown) [3,7-Dimethyl-9-(3'-methoxy-4'-ethoxy-benzoyloxy)-3,7-diazabicyclo[3.3.1]nonane]", "values": [{"measurement": "Therap. index (ED50/LD50)", "setting": "[1]", "result": 0.074}, {"measurement": "LD50", "setting": "in vivo", "result": 13.5, "unit": "mg/kg"}]}, {"smiles": "COc1ccc(CCN(C)CCCC(C#N)(c2ccc(OC)c(OC)c2)C(C)C)cc1OC", "note": "(racemic) [Verapramil, reference compound]", "values": [{"measurement": "calcium antagonistic effect (pA2)", "setting": "[2]", "result": "4.58-4.7"}]}, {"smiles": "CCN1CC2CN(C)CC(C1)C2OC(=O)c1ccc(-c2ccccc2)cc1", "note": "(stereo not drawn) [3-Methyl-7-ethyl-9α-(4'-phenyl-benzoyloxy)-3,7-diazabicyclo[3.3.1]nonane]", "values": [{"measurement": "Therap. index (ED50/LD50)", "setting": "[1]", "result": 0.061}, {"measurement": "LD50", "setting": "in vivo", "result": 19.5, "unit": "mg/kg"}]}, {"smiles": "CCN1CC2CN(CC)CC(C1)C2OC(=O)c1ccc(Cl)cc1.Cl.Cl.O", "note": "(stereo not shown) [3,7-diethyl-9-(4'-chloro-benzoyloxy)-3,7-diazabicyclo[3.3.1]nonane dihydrochloride monohydrate]", "values": [{"measurement": "Therap. index (ED50/LD50)", "setting": "[1]", "result": 0.036}, {"measurement": "LD50", "setting": "in vivo", "result": 11, "unit": "mg/kg"}]}, {"smiles": "CN1CC2CN(C)CC(C1)C2OC(c1ccccc1)c1ccccc1.O=C(O)/C=C/C(=O)O", "note": "(stereo not shown) [3,7-Dimethyl-9-benzhydryloxy-3,7-diazabicyclo[3.3.1]nonane fumarate]", "values": [{"measurement": "Therap. index (ED50/LD50)", "setting": "[1]", "result": 0.057}, {"measurement": "LD50", "setting": "in vivo", "result": 21, "unit": "mg/kg"}]}, {"smiles": "CN1CC2CN(C)CC(C1)C2OC(=O)c1ccccc1", "note": "(stereo not shown) [3,7-Dimethyl-9-benzoyloxy-3,7-diazabicyclo[3.3.1]nonane]", "values": [{"measurement": "Therap. index (ED50/LD50)", "setting": "[1]", "result": 0.009}, {"measurement": "LD50", "setting": "in vivo", "result": 9, "unit": "mg/kg"}]}]}
